Experiments:
[1] = biological target: B-Raf (Homo sapiens, UniProt P15056); experiment: Kinase activity assay, B-Raf; assay type: biochemical; conditions: read-out: activity toward kinase B-Raf, IC50
[2] = biological target: B-Raf V600E (Homo sapiens, UniProt P15056, V600E); experiment: Kinase activity assay, B-Raf V600E; assay type: biochemical; conditions: read-out: activity toward kinase B-Raf V600E, IC50
[3] = biological target: Btk (Homo sapiens, UniProt Q06187); experiment: Kinase activity assay, Btk
[4] = biological target: Fms (Homo sapiens, UniProt P07333); experiment: Kinase activity assay, Fms
[5] = biological target: Kdr (Homo sapiens, UniProt P35968); experiment: Kinase activity assay, Kdr
[6] = biological target: Kit (Homo sapiens, UniProt P10721); experiment: Kinase activity assay, Kit
[7] = biological target: Src (Homo sapiens, UniProt P12931); experiment: Kinase activity assay, Src
[8] = biological target: T1, TEC (Homo sapiens, UniProt P42680); experiment: Kinase activity assay, TEC
T1 sequence (P42680 1-631): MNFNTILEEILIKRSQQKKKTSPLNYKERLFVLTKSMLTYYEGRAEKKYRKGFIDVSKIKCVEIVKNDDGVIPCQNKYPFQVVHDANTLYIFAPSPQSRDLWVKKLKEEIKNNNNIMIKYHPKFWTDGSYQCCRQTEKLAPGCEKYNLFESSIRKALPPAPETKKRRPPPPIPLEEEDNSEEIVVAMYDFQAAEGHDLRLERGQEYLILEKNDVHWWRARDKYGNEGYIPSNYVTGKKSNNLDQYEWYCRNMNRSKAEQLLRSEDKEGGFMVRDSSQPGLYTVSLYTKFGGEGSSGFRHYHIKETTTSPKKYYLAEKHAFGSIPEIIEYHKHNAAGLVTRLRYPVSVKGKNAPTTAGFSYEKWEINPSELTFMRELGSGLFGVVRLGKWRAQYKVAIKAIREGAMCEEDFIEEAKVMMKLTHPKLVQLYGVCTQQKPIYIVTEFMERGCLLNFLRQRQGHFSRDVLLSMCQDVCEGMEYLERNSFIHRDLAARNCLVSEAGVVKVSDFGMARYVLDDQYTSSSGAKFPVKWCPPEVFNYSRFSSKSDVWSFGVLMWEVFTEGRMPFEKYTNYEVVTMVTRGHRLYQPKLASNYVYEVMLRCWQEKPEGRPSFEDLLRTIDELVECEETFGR

[9] = biological target: T2, A-Raf (Homo sapiens, UniProt P10398); experiment: Kinase activity assay, A-Raf
T2 sequence (P10398 1-606): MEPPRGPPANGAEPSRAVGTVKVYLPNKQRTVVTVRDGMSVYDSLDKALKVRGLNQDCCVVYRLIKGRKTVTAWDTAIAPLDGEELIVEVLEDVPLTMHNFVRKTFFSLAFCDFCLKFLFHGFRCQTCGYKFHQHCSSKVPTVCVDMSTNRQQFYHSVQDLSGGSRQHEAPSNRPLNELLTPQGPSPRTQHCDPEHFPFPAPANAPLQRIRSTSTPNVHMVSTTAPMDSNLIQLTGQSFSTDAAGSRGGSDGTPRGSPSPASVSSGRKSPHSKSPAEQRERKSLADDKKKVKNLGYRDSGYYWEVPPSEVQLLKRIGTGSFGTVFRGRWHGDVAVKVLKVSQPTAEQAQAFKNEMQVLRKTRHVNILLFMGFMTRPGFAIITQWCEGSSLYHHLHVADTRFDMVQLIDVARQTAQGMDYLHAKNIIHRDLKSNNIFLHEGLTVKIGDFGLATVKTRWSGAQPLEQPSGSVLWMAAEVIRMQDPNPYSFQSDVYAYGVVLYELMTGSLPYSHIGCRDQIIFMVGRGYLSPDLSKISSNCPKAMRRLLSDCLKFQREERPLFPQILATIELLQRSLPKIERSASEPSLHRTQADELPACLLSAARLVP

[10] = biological target: C-Raf (Homo sapiens, UniProt P04049); experiment: Kinase activity assay, C-Raf
[11] = biological target: MAP4K4 (Homo sapiens, UniProt O95819); experiment: Kinase activity assay, MAP4K4
[12] = biological target: PI3Kα (Homo sapiens, UniProt P42336); experiment: Kinase activity assay, PI3Kα

Measured: IC50

Chain of Src (P12931 whole entry): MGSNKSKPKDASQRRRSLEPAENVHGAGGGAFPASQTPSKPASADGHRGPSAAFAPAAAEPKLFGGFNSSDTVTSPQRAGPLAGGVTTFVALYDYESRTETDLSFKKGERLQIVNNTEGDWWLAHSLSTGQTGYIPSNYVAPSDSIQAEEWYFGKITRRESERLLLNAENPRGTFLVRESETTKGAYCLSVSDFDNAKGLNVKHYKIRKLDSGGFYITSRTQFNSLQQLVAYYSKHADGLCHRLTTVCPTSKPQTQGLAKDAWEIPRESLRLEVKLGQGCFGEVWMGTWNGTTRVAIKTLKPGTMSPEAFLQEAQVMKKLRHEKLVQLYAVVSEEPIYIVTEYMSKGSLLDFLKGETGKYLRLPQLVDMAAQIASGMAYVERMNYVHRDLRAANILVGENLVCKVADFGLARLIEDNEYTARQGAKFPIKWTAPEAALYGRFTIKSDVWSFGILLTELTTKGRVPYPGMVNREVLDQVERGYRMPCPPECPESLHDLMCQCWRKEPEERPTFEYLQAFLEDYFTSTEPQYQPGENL
Chain of Kdr (P35968 20-1356): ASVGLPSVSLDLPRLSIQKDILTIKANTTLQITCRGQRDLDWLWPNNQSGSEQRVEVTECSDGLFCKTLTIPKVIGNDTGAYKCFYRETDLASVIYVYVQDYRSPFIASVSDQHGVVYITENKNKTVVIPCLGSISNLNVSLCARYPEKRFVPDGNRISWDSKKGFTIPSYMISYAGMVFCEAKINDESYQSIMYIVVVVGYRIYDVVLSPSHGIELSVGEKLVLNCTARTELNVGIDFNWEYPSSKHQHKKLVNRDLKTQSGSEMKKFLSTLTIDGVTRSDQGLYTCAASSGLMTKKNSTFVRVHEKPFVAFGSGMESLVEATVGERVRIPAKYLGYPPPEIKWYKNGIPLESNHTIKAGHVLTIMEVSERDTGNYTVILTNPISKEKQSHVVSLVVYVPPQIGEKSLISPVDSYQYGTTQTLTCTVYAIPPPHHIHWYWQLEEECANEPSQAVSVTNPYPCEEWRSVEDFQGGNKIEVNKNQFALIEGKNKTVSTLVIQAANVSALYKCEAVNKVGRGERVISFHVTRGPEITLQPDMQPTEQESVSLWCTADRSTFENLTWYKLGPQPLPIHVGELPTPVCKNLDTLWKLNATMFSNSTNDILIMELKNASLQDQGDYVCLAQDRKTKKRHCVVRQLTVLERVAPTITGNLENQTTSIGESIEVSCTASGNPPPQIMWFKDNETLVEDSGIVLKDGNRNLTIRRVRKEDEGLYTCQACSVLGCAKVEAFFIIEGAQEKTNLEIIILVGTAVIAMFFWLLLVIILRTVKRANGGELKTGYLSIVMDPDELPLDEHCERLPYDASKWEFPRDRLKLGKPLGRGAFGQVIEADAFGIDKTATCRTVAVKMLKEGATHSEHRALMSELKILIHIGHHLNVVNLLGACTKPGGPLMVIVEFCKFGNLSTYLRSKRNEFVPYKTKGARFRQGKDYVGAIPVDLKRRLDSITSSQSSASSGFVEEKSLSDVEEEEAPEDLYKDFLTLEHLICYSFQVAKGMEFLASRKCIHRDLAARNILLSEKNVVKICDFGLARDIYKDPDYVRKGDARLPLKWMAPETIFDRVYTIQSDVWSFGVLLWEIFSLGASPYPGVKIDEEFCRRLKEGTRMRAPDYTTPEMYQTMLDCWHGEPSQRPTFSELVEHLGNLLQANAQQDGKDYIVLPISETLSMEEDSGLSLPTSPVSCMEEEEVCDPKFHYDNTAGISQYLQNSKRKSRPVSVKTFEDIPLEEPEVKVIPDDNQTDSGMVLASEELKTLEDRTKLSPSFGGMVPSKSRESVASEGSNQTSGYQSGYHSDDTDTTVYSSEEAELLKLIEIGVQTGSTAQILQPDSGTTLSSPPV
Chain of PI3Kα (P42336 whole entry): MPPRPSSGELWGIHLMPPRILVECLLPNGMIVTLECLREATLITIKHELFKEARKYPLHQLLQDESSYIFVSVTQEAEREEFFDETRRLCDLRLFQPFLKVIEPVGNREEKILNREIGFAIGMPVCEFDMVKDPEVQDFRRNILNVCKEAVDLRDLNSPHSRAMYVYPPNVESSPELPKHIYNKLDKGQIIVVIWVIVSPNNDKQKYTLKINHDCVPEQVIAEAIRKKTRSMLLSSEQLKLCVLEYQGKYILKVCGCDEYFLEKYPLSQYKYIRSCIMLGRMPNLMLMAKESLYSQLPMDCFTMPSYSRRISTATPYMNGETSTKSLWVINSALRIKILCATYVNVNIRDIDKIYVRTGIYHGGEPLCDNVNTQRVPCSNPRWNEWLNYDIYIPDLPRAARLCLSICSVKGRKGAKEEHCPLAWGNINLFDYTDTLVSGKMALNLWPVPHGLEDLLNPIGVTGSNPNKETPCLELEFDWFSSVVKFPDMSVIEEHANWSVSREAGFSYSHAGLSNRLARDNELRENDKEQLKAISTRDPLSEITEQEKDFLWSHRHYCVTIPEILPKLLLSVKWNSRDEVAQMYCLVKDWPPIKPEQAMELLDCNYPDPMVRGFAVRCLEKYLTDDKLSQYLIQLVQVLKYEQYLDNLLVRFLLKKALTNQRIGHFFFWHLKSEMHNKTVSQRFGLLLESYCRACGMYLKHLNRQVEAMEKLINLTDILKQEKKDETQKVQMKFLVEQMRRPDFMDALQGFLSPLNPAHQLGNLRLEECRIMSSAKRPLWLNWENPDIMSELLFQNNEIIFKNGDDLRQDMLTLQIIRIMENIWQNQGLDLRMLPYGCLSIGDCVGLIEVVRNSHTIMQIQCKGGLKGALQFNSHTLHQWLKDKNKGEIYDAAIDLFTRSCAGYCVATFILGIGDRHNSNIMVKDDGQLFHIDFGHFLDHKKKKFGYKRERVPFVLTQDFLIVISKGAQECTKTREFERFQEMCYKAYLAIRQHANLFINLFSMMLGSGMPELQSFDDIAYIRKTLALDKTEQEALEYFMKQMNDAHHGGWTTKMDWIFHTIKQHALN
Chain of PI3Kα (P27986 whole entry partner): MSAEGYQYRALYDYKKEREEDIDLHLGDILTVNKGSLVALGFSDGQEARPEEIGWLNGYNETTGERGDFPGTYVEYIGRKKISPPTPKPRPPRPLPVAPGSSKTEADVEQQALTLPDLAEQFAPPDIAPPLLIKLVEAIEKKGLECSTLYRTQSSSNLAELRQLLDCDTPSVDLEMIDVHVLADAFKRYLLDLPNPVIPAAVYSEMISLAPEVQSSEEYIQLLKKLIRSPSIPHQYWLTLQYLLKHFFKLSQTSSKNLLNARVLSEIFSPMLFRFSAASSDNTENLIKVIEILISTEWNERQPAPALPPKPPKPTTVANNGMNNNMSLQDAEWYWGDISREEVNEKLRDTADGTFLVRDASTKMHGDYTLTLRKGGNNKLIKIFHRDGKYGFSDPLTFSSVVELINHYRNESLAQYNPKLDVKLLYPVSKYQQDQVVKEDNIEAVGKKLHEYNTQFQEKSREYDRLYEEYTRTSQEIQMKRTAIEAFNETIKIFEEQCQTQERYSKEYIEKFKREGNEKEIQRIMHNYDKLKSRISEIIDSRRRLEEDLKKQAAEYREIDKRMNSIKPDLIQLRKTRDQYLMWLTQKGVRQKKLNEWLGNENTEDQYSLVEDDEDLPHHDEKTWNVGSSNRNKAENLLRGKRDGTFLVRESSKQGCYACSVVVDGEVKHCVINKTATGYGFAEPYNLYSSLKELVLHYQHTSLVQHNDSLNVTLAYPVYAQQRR
Chain of B-Raf V600E (P15056 whole entry V600E): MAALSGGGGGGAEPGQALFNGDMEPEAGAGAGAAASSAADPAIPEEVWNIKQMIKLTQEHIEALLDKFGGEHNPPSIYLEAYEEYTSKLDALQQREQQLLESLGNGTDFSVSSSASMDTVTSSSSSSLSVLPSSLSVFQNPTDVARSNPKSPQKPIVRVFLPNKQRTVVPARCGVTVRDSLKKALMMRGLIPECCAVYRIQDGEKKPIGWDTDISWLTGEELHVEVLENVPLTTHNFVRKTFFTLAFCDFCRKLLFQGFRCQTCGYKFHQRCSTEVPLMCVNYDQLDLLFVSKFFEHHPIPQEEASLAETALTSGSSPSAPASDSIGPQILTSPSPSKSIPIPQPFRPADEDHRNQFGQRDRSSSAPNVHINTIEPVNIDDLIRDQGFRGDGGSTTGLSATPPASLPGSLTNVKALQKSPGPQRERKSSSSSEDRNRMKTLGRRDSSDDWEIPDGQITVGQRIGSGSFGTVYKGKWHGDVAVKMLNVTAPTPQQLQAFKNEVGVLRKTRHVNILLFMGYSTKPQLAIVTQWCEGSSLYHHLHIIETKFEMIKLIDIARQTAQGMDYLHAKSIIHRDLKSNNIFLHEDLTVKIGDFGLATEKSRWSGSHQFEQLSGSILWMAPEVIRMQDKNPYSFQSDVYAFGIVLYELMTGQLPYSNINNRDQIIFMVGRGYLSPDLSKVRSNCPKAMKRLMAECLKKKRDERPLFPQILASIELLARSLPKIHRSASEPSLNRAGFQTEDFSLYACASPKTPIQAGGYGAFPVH
Chain of B-Raf (P15056 whole entry): as the sequence (P15056 whole entry V600E) above, with E600V counted along it

COc1ccnc2[nH]cc(C(=O)c3c(F)ccc(NS(=O)(=O)c4cc(F)ccc4F)c3F)c12 [P-2022, N-[2,4-Difluoro-3-(4-methoxy-1H-pyrrolo[2,3-b]pyridine-3-carbonyl)-phenyl]-2,5-difluoro-benzenesulfonamide]
not listed: [12]
≤ 10 µM: all other assays above

COc1ncc(-c2cnc3[nH]cc(C(=O)c4c(F)ccc(NS(=O)(=O)c5ccc(F)cc5)c4F)c3c2)cn1 [P-2040, N-{2,4-Difluoro-3-[5-(2-methoxy-pyrimidin-5-yl)-1H-pyrrolo[2,3-b]pyridine-3-carbonyl]-phenyl}-4-fluoro-benzenesulfonamide]
≤ 10 µM: [1] | [2] | [7] | [8] | [10] | [12]

COc1ncc(-c2cnc3[nH]cc(C(=O)c4c(F)ccc(NS(=O)(=O)c5cccc(F)c5)c4F)c3c2)cn1 [P-2045, N-{2,4-Difluoro-3-[5-(2-methoxy-pyrimidin-5-yl)-1H-pyrrolo[2,3-b]pyridine-3-carbonyl]-phenyl}-3-fluoro-benzenesulfonamide]
≤ 10 µM: [1] | [2] | [3] | [7] | [8] | [10] | [12]

NC(=O)c1cccc(-c2cnc3[nH]cc(C(=O)c4cccc(NS(=O)(=O)c5cccnc5)c4)c3c2)c1 [P-2147, 3-{3-[3-(Pyridine-3-sulfonylamino)-benzoyl]-1H-pyrrolo[2,3-b]pyridin-5-yl}-benzamide]
not listed: [4] | [8] | [9]
≤ 10 µM: all other assays above

CS(=O)(=O)c1cccc(-c2cnc3[nH]cc(C(=O)c4cccc(NS(=O)(=O)c5cccnc5)c4)c3c2)c1 [P-2149, Pyridine-3-sulfonic acid {3-[5-(3-methanesulfonyl-phenyl)-1H-pyrrolo[2,3-b]pyridine-3-carbonyl]-phenyl}-amide]
≤ 10 µM: [1] | [4] | [5] | [6] | [7] | [12] | [11]

CCCS(=O)(=O)Nc1ccc(F)c(C(=O)c2c[nH]c3ncc(-c4ccc(O)nc4)cc23)c1F [P-2234, Propane-1-sulfonic acid {2,4-difluoro-3-[5-(6-hydroxy-pyridin-3-yl)-1H-pyrrolo[2,3-b]pyridine-3-carbonyl]-phenyl}-amide]
not listed: [3] | [8]
≤ 10 µM: all other assays above

C#Cc1cnc2[nH]cc(C(=O)c3c(F)ccc(NS(=O)(=O)CCC)c3F)c2c1 [P-2260, Propane-1-sulfonic acid [3-(5-ethynyl-1H-pyrrolo[2,3-b]pyridine-3-carbonyl)-2,4-difluoro-phenyl]-amide]
not listed: [11] | [12]
≤ 10 µM: all other assays above

CCS(=O)(=O)Nc1ccc(F)c(C(=O)c2c[nH]c3ncc(-c4cnc(OC)nc4)cc23)c1F [P-2286, Ethanesulfonic acid {2,4-difluoro-3-[5-(2-methoxy-pyrimidin-5-yl)-1H-pyrrolo[2,3-b]pyridine-3-carbonyl]-phenyl}-amide]
≤ 10 µM: [1] | [2] | [3] | [5] | [7] | [10] | [12]

COc1ncc(-c2cnc3[nH]cc(C(=O)c4c(F)ccc(NS(C)(=O)=O)c4F)c3c2)cn1 [P-2295, N-{2,4-Difluoro-3-[5-(2-methoxy-pyrimidin-5-yl)-1H-pyrrolo[2,3-b]pyridine-3-carbonyl]-phenyl}-methanesulfonamide]
≤ 10 µM: [1] | [2] | [3] | [5] | [10] | [12]

COc1ncc(-c2cnc3[nH]cc(C(=O)c4c(F)ccc(NS(=O)(=O)CCC(F)(F)F)c4F)c3c2)cn1 [P-2333]
not listed: [3] | [4] | [9] | [11]
≤ 10 µM: all other assays above

COc1ncc(-c2cnc3[nH]cc(C(=O)c4c(F)ccc(NS(=O)(=O)CC(F)(F)F)c4F)c3c2)cn1 [P-2342, 2,2,2-Trifluoro-ethanesulfonic acid {2,4-difluoro-3-[5-(2-methoxy-pyrimidin-5-yl)-1H-pyrrolo[2,3-b]pyridine-3-carbonyl]-phenyl}-amide]
≤ 10 µM: [1] | [2] | [7] | [8] | [10] | [12]

COc1ncc(-c2cnc3[nH]cc(C(=O)c4c(F)ccc(NS(=O)(=O)C5CCC5)c4F)c3c2)cn1 [P-2373, Cyclobutanesulfonic acid {2,4-difluoro-3-[5-(2-methoxy-pyrimidin-5-yl)-1H-pyrrolo[2,3-b]pyridine-3-carbonyl]-phenyl}-amide]
≤ 10 µM: [1] | [2] | [5] | [7] | [8] | [10] | [12]

Cc1cnc2[nH]cc(C(=O)c3c(F)ccc(NS(=O)(=O)N4CCCC4)c3F)c2c1 [P-2379, Pyrrolidine-1-sulfonic acid [2,4-difluoro-3-(5-methyl-1H-pyrrolo[2,3-b]pyridine-3-carbonyl)-phenyl]-amide]
not listed: [4] | [11] | [12]
≤ 10 µM: all other assays above

N#Cc1ccnc2[nH]cc(C(=O)c3c(F)ccc(NS(=O)(=O)N4CCCC4)c3F)c12 [P-2394, Pyrrolidine-1-sulfonic acid [3-(4-cyano-1H-pyrrolo[2,3-b]pyridine-3-carbonyl)-2,4-difluoro-phenyl]-amide]
not listed: [4] | [6] | [11] | [12]
≤ 10 µM: all other assays above

COc1ncc(-c2cnc3[nH]cc(C(=O)c4c(F)ccc(NS(=O)(=O)N5CCOCC5)c4F)c3c2)cn1 [P-2402, Morpholine-4-sulfonic acid {2,4-difluoro-3-[5-(2-methoxy-pyrimidin-5-yl)-1H-pyrrolo[2,3-b]pyridine-3-carbonyl]-phenyl}-amide]
≤ 10 µM: [1] | [2] | [3] | [7] | [8] | [10] | [12]

— patent publication US20120122860A1, “SOLID FORMS OF SULFONAMIDES AND AMINO ACIDS” (Plexxikon, Inc., priority 2009, published 2012)
